Experimental data published in patent publication US20250019387A1 (Frontier Medicines Corporation, priority 0001, published 2025).

Biological target: KRAS G12C and cRAF (Ras-binding domain) interaction (Homo sapiens (Human), UniProt P01116, C118S/C51S/C80L/G12C)
Test: Inhibition of KRAS G12C and cRAF binding (AlphaScreen)
Details: GMPPNP-loaded KRAS G12C, 19-20 hours incubation with compound; read-out: IC50 (Inhibition of KRAS G12C and cRAF Binding)
How it was run: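 Compounds (DMSO) preincubated 19-20 h at room temperature, then RBD with streptavidin donor and glutathione acceptor beads added in 25 mM Hepes pH 7.4, 150 mM NaCl, 5 mM MgCl2, 0.01% Triton X-100, 2% DMSO for 60-90 min. Emission 570 nm (excitation 680 nm); IC50 by 4-parameter fit. Counter-screen used biotin-AviTag-GST instead of RBD.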

Sequence of KRAS G12C and cRAF (Ras-binding domain) interaction (P01116 other isoform, or with tags, fused parts or gaps G12C/C51S/C80L/C118S): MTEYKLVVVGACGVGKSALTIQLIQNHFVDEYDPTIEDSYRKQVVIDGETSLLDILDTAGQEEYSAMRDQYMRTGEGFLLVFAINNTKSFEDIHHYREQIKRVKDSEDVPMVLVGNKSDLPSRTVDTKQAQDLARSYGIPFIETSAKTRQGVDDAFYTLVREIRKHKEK

Question: `CN(CCNC(=O)/C=C/C(=O)O)c1nc(OC[C@@H]2CCCN2C)nc2c1CCN(c1cccc3cccc(Cl)c13)C2` [Example 21, (S,E)-4-((2-((7-(8-chloronaphthalen-1-yl)-2-((1-methylpyrrolidin-2-yl)methoxy)-5,6,7,8-tetrahydropyrido[3,4-d]pyrimidin-4-yl)(methyl)amino)ethyl)amino)-4-oxobut-2-enoic acid] was tested. Which IC50 did it give?
Answer: Its IC50 is over 500 nM.

Question: `CC(C)N1CC[C@@H]1/C=C/C(=O)N1CC[C@@H](N(C)c2nc(OC[C@@]34CCCN3C[C@H](F)C4)nc3c(F)c(-c4cccc5cccc(Cl)c45)ncc23)C1` [Example 232, (E)-1-((R)-3-((7-(8-chloronaphthalen-1-yl)-8-fluoro-2-(((2R,7aS)-2-fluorotetrahydro-1H-pyrrolizin-7a(5H)-yl)methoxy)pyrido[4,3-d]pyrimidin-4-yl)(methyl)amino)pyrrolidin-1-yl)-3-((R)-1-isopropylazetidin-2-yl)prop-2-en-1-one] was tested. Which IC50 did it give?
Answer: The IC50 was 10 to 100 nM.

Question: With `C#Cc1c(F)ccc2cccc(-c3ncc4c(N(C)[C@@H]5CCN(C(=O)/C=C/CN6CC[C@H](OC)C6)C5)nc(OC[C@@]56CCCN5C[C@H](F)C6)nc4c3F)c12` [Example 286, (E)-1-((R)-3-((7-(8-ethynyl-7-fluoronaphthalen-1-yl)-8-fluoro-2-(((2R,7aS)-2-fluorotetrahydro-1H-pyrrolizin-7a(5H)-yl)methoxy)pyrido[4,3-d]pyrimidin-4-yl)(methyl)amino)pyrrolidin-1-yl)-4-((S)-3-methoxypyrrolidin-1-yl)but-2-en-1-one] as the molecule, how does the IC50 read?
Answer: Its IC50 is 10 to 100 nM.

Question: `Cc1cc(/C=C/C(=O)N2CC(CN(C)c3nc(OC[C@@]45CCCN4C[C@H](F)C5)nc4c(F)c(-c5cccc6ccc(F)c(Cl)c56)ncc34)C2)nc(C)n1` [Example 273, (E)-1-(3-(((7-(8-chloro-7-fluoronaphthalen-1-yl)-8-fluoro-2-(((2R,7aS)-2-fluorotetrahydro-1H-pyrrolizin-7a(5H)-yl)methoxy)pyrido[4,3-d]pyrimidin-4-yl)(methyl)amino)methyl)azetidin-1-yl)-3-(2,6-dimethylpyrimidin-4-yl)prop-2-en-1-one] was tested. Which IC50 did it give?
Answer: The IC50 was 100 to 500 nM.

Question: For `C=CC(=O)N1CC[C@@H](N(C)c2nc(OCC34CCCN3CCC4)nc3c(F)c(-c4cccc5c(F)cc(F)cc45)ncc23)C1` [Example 269, (R)-1-(3-((7-(5,7-difluoronaphthalen-1-yl)-8-fluoro-2-((hexahydro-1H-pyrrolizin-7a-yl)methoxy)pyrido[4,3-d]pyrimidin-4-yl)(methyl)amino)pyrrolidin-1-yl)prop-2-en-1-one], which IC50 is on record?
Answer: Its IC50 is 100 to 500 nM.

Question: With `CN(c1nc(OC[C@@]23CCCN2C[C@H](F)C3)nc2c(F)c(-c3cccc4ccc(F)c(Cl)c34)ncc12)[C@@H]1CCN(C(=O)/C=C/C2CCCN2)C1` (stereo partly drawn) [Example 102, (E)-1-((R)-3-((7-(8-chloro-7-fluoronaphthalen-1-yl)-8-fluoro-2-(((2R,7aS)-2-fluorotetrahydro-1H-pyrrolizin-7a(5H)-yl)methoxy)pyrido[4,3-d]pyrimidin-4-yl)(methyl)amino)pyrrolidin-1-yl)-3-(pyrrolidin-2-yl)prop-2-en-1-one] as the molecule, how does the IC50 read?
Answer: The IC50 was 10 to 100 nM.

Question: With `COC(=O)/C=C/C(=O)N1CCC(N(C)c2nc(OC[C@@H]3CCCN3C)nc3c(F)c(-c4cccc5cccc(Cl)c45)ncc23)C1` (stereo partly drawn) [Example 24, methyl(E)-4-(3-((7-(8-chloronaphthalen-1-yl)-8-fluoro-2-(((S)-1-methylpyrrolidin-2-yl)methoxy)pyrido[4,3-d]pyrimidin-4-yl)(methyl)amino)pyrrolidin-1-yl)-4-oxobut-2-enoate] as the molecule, how does the IC50 read?
Answer: The IC50 was under 10 nM.

Question: For `C=CS(=O)(=O)C1CCN(c2nc(OC[C@@H]3CCCN3C)nc3c2CCN(c2cccc4cccc(Cl)c24)C3)C1` (stereo partly drawn) [Example 51, 7-(8-chloronaphthalen-1-yl)-2-(((S)-1-methylpyrrolidin-2-yl)methoxy)-4-(3-(vinylsulfonyl)pyrrolidin-1-yl)-5,6,7,8-tetrahydropyrido[3,4-d]pyrimidine], which IC50 is on record?
Answer: The IC50 was over 500 nM.

Question: How did the IC50 turn out when `COC(=O)/C=C/C(=O)NC1CCN(c2nc(OC[C@@H]3CCCN3C)nc3c2CCN(c2cccc4cccc(Cl)c24)C3)C1` (stereo partly drawn) [Example 14, methyl(E)-4-((1-(7-(8-chloronaphthalen-1-yl)-2-(((S)-1-methylpyrrolidin-2-yl)methoxy)-5,6,7,8-tetrahydropyrido[3,4-d]pyrimidin-4-yl)pyrrolidin-3-yl)amino)-4-oxobut-2-enoate] was run?
Answer: The IC50 was over 500 nM.

Question: For `C=CC(=O)N1CC(F)(CN(C)c2nc(OC[C@@]34CCCN3C[C@H](F)C4)nc3c(F)c(-c4cccc5ccc(F)c(Cl)c45)ncc23)C1` [Example 60, 1-(3-(((7-(8-chloro-7-fluoronaphthalen-1-yl)-8-fluoro-2-(((2R,7aS)-2-fluorotetrahydro-1H-pyrrolizin-7a(5H)-yl)methoxy)pyrido[4,3-d]pyrimidin-4-yl)(methyl)amino)methyl)-3-fluoroazetidin-1-yl)prop-2-en-1-one], which IC50 is on record?
Answer: Its IC50 is 100 to 500 nM.

Question: How did the IC50 turn out when `Cc1nsc(/C=C/C(=O)N2CC[C@@H](N(C)c3nc(OCC45CCCN4CCC5)nc4c(F)c(-c5cccc6cccc(Cl)c56)ncc34)C2)n1` [Example 138, (R,E)-1-(3-((7-(8-chloronaphthalen-1-yl)-8-fluoro-2-((tetrahydro-1H-pyrrolizin-7a(5H)-yl)methoxy)pyrido[4,3-d]pyrimidin-4-yl)(methyl)amino)pyrrolidin-1-yl)-3-(3-methyl-1,2,4-thiadiazol-5-yl)prop-2-en-1-one] was run?
Answer: The IC50 was 10 to 100 nM.

Question: How did the IC50 turn out when `CC(C)c1noc(/C=C/C(=O)N2CC[C@@H](N(C)c3nc(OC[C@@]45CCCN4C[C@H](F)C5)nc4c3CCN(c3cccc5cccc(Cl)c35)C4)C2)n1` [Example 136, (E)-1-((R)-3-((7-(8-chloronaphthalen-1-yl)-2-(((2R,7aS)-2-fluorohexahydro-1H-pyrrolizin-7a-yl)methoxy)-5,6,7,8-tetrahydropyrido[3,4-d]pyrimidin-4-yl)(methyl)amino)pyrrolidin-1-yl)-3-(3-isopropyl-1,2,4-oxadiazol-5-yl)prop-2-en-1-one] was run?
Answer: The IC50 was 10 to 100 nM.

Question: Which IC50 does the source give for `CN(CC1CN(C(=O)/C=C/c2nc(C(F)F)no2)C1)c1nc(OCC23CCCN2CCC3)nc2c1CCN(c1cccc3cccc(Cl)c13)C2` [Example 150, (E)-1-(3-(((7-(8-chloronaphthalen-1-yl)-2-((hexahydro-1H-pyrrolizin-7a-yl)methoxy)-5,6,7,8-tetrahydropyrido[3,4-d]pyrimidin-4-yl)(methyl)amino)methyl)azetidin-1-yl)-3-(3-(difluoromethyl)-1,2,4-oxadiazol-5-yl)prop-2-en-1-one] here?
Answer: Its IC50 is under 10 nM.

Question: `CN(CC1CN(C(=O)/C=C/[C@@H]2CCN2C)C1)c1nc(OC[C@@]23CCCN2C[C@H](F)C3)nc2c(F)c(-c3cccc4ccc(F)c(Cl)c34)ncc12` [Example 220, (E)-1-(3-(((7-(8-chloro-7-fluoronaphthalen-1-yl)-8-fluoro-2-(((2R,7aS)-2-fluorotetrahydro-1H-pyrrolizin-7a(5H)-yl)methoxy)pyrido[4,3-d]pyrimidin-4-yl)(methyl)amino)methyl)azetidin-1-yl)-3-((S)-1-methylazetidin-2-yl)prop-2-en-1-one] was tested. Which IC50 did it give?
Answer: Its IC50 is under 10 nM.

Question: For `CN(c1nc(OCC23CCCN2CCC3)nc2c(F)c(-c3cccc4cccc(Cl)c34)ncc12)[C@@H]1CCN(C(=O)/C=C/c2cn(C)cn2)C1` [Example 115, (R,E)-1-(3-((7-(8-chloronaphthalen-1-yl)-8-fluoro-2-((hexahydro-1H-pyrrolizin-7a-yl)methoxy)pyrido[4,3-d]pyrimidin-4-yl)(methyl)amino)pyrrolidin-1-yl)-3-(1-methyl-1H-imidazol-4-yl)prop-2-en-1-one], which IC50 is on record?
Answer: Its IC50 is over 500 nM.

Same assay, conditions: additional exemplary compounds; KRAS G12C and cRAF binding; read-out: RAF1 RBD IC50

Question: Which IC50 does the source give for `C=CC(=O)N1C[C@H]2C[C@@H]1CN2c1nc(OCC23CCCN2CCC3)nc2c1CCN(c1cccc3cccc(Cl)c13)C2` here?
Answer: The IC50 was over 500 nM.

Question: For `O=C(/C=C/CN1CCOCC1)N1C[C@H]2C[C@@H]1CN2c1nc(OC[C@@]23CCCN2C[C@H](F)C3)nc2c(F)c(-c3cccc4cccc(Cl)c34)ncc12`, which IC50 is on record?
Answer: The IC50 was over 500 nM.

Question: Which IC50 does the source give for `C=CC(=O)[C@@H]1CC[C@H]1Nc1nc(OC[C@@H]2CCCN2C)nc2c1CCN(c1cccc3ccccc13)C2` here?
Answer: The IC50 was over 500 nM.

Question: `C=CC(=O)N1C[C@@H](C)C[C@@H](Nc2nc(OC[C@@]34CCCN3C[C@H](F)C4)nc3c(F)c(-c4cccc5cccc(Cl)c45)ncc23)C1` was tested. Which IC50 did it give?
Answer: The IC50 was over 500 nM.

Question: `CN(C)C(=O)/C=C/C(=O)N1CC(CN(C)c2nc(OCC34CCCN3CCC4)nc3c2CCN(c2cccc4cccc(Cl)c24)C3)C1` was tested. Which IC50 did it give?
Answer: The IC50 was over 500 nM.

Question: `C=CC(=O)N1C[C@@H]2C[C@H]1CN2c1nc(OCC23CCCN2CCC3)nc2c1CCN(c1cccc3cccc(Cl)c13)C2` was tested. Which IC50 did it give?
Answer: The IC50 was over 500 nM.

Question: Which IC50 does the source give for `C=CC(=O)N1CC[C@@H](N(C)c2nc(OC[C@@]34CCCN3C[C@H](F)C4)nc3c(F)c(-c4cccc5cccc(C(F)(F)F)c45)ncc23)C1` here?
Answer: The IC50 was 10 to 100 nM.

Question: With `CN(C)C/C=C/C(=O)N1CC[C@@H](N(C)c2nc(OCC34CCCN3CCC4)nc3c2CCN(c2cccc4ccc(F)c(Cl)c24)C3)C1` as the molecule, how does the IC50 read?
Answer: Its IC50 is 100 to 500 nM.

Question: `Cc1nccc(/C=C/C(=O)N2CCCN(c3nc(OC[C@@]45CCCN4C[C@H](F)C5)nc4c(F)c(-c5cccc6cccc(Cl)c56)ncc34)CC2)n1` was tested. Which IC50 did it give?
Answer: The IC50 was over 500 nM.

Question: With `C=CC(=O)N1CC[C@H]2[C@@H]1CCN2c1nc(OCC23CCCN2CCC3)nc2c1CCN(c1cccc3cccc(Cl)c13)C2` as the molecule, how does the IC50 read?
Answer: The IC50 was over 500 nM.

Question: For `C=CC(=O)N1C[C@H](C)C[C@H](Nc2nc(OC[C@@]34CCCN3C[C@H](F)C4)nc3c(F)c(-c4cccc5cccc(Cl)c45)ncc23)C1`, which IC50 is on record?
Answer: The IC50 was over 500 nM.

Question: How did the IC50 turn out when `O=C(/C=C/CN1CCOCC1)N1CC2(C1)CN(c1nc(OC[C@@]34CCCN3C[C@H](F)C4)nc3c(F)c(-c4cccc5cccc(Cl)c45)ncc13)C2` was run?
Answer: Its IC50 is over 500 nM.

Question: `C#Cc1c(F)ccc2cccc(-c3ncc4c(N(C)[C@@H]5CCCN(C(=O)/C=C/c6cc(C)nc(C)n6)C5)nc(OC[C@@]56CCCN5C[C@H](F)C6)nc4c3F)c12` was tested. Which IC50 did it give?
Answer: The IC50 was 100 to 500 nM.
